This note sets out measurements from patent US8202902B2, “Bivalent SMAC mimetics and the uses thereof” (The Regents of the University of Michigan, priority 2006, dated 2012).

Test [1] has as its target T1, human XIAP protein (residues 120-356) (Homo sapiens, UniProt P98170).
T1 construct: human XIAP protein (residues 120-356) (10 nM)
Nature of the test: Fluorescence-polarization-based binding assay to XIAP protein (Smac2-F tracer). The conditions noted are these: read-out: Binding to XIAP IC50 values. The protocol:
The polarization values were measured after 2 hours incubation, using the Ultra plate reader. […] Curve fitting is performed using GraphPad Prism® software.

The test system of test [2] is SK-OV-3. Nature of the test: Cell growth inhibition, WST assay, SK-OV-3. Format: cell-based. Conditions: Homo sapiens. The protocol:
Cells were seeded in 96-well flat bottom cell culture plates at a density of 3000 cells/well with a tested compound and incubated at 37° C. in an atmosphere of 95% air and 5% CO2 for 4 days. The rate of cell growth inhibition after treatment with different concentrations of the compound was determined using a WST-8 kit (2-(2-methoxy-4-nitrophenyl)-3-(4-nitrophenyl)-5-(2, 4 disulfophenyl)-2H-tetrazolium monosodium salt; Dojindo Molecular Technologies, Inc., Gaithersburg, Md.). WST-8 was added at a final concentration of 10% to each well, and then the plates were incubated at 37° C. for 2-3 hrs. The absorbance of the samples was measured at 450 nm using a ULTRA Tecan Reader (Molecular Device).

In test [3] the test system is MDA-MB-231 human breast cancer cell line. Nature of the test: Cell growth inhibition, WST-8 assay, MDA-MB-231. Format: cell-based. The conditions noted are these: MDA-MB-231, read-out: IC50 values (nM) In WST-assay (MDA-MB-231). The protocol: The rate of cell growth inhibition after treatment with different concentrations of the compound was determined using a WST-8 kit (2-(2-methoxy-4-nitrophenyl)-3-(4-nitrophenyl)-5-(2, 4 disulfophenyl)-2H-tetrazolium monosodium salt; Dojindo Molecular Technologies, Inc., Gaithersburg, Md.). WST-8 was added at a final concentration of 10% to each well, and then the plates were incubated at 37° C. for 2-3 hrs. The absorbance of the samples was measured at 450 nm using a ULTRA Tecan Reader (Molecular Device).

Test [4] concerns the target T2, XIAP BIR3 protein of human XIAP (residues 241-356) (Homo sapiens, UniProt P98170).
T2 construct: human XIAP (residues 241-356) fused to His-tag; His-tag
The test is described as follows: Fluorescence polarization (FP) based binding assay to XIAP BIR3. The conditions noted are these: read-out: Binding Affinities to XIAP BIR3 (IC50 [uM]). An excerpt: In order to test the binding ability of the bivalent Smac mimetics to IAP proteins, a sensitive and quantitative in vitro binding assay using the fluorescence polarization (FP) based method was developed and used to determine the binding affinity of Smac mimetics to XIAP protein (Nikolovska-Coleska et al., Anal Biochem. 332:261-73 (2004)). […] The recombinant XIAP BIR3 protein of human XIAP ([…]) fused to His-tag was stable and soluble, and was used for the FP based binding assay. The dose-dependent binding experiments were carried out with serial dilutions of the tested compounds in DMSO. […] Inc., Research Triangle Park, N.C.). […] Curve fitting was performed using […] PRISM software (GraphPad Software, Inc., San Diego, Calif.).

Test [5] has as its system MDA-MB-231 xenograft model. Nature of the test: Inhibition of tumor growth in the MDA-MB-231 xenograft model. Format: in vivo, mice. Conditions: 7.5 mg/kg. How it is done: SM-164 was evaluated for its ability to inhibit tumor growth. […] Treatment with SM-164 at 5 mg/kg reduces the tumor volume from 147±54 mm^3 at the beginning of the treatment (day 25) to 54±32 mm^3 at the end of the treatment (day 36), a reduction of 65%. The strong antitumor activity by SM-164 is long lasting and not transient.

T1 sequence (P98170 120-356): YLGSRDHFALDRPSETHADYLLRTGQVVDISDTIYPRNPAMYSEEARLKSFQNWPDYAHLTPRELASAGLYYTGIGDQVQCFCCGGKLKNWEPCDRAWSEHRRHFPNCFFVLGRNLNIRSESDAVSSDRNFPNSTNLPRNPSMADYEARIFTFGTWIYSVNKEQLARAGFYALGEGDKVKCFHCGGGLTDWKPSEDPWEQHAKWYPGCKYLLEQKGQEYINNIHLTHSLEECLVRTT
T2 sequence (P98170 241-356): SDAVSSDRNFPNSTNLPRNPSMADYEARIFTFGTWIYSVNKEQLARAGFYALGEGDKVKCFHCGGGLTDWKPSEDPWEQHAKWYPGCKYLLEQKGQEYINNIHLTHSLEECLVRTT

In the case of `CN[C@@H](C)C(=O)N[C@H]1CCCC[C@H]2CC[C@@H](C(=O)N[C@@H](c3ccccc3)c3ccc(CCCn4cc(COCc5cn(CCCc6ccc([C@@H](NC(=O)[C@@H]7CC[C@@H]8CCCC[C@H](NC(=O)[C@H](C)NC)C(=O)N87)c7ccccc7)cc6)nn5)nn4)cc3)N2C1=O` [SH-155], the half-inhibitory concentration (IC50) in test [1] was less than 10 nM; in test [2], less than 100 nM; in test [3], less than 100 nM.
Turning to `CN[C@@H](C)C(=O)N[C@H]1CCCC[C@H]2CC[C@@H](C(=O)N[C@@H](c3ccccc3)c3cn(CCOCCOCCn4cc([C@@H](NC(=O)[C@@H]5CC[C@@H]6CCCC[C@H](NC(=O)[C@H](C)NC)C(=O)N65)c5ccccc5)nn4)nn3)N2C1=O` [SH-158], the IC50 is less than 10 nM in test [1], less than 1000 nM in test [2] and less than 1000 nM in test [3].
As to `CN[C@@H](C)C(=O)N[C@H]1CCCC[C@H]2CC[C@@H](C(=O)N[C@@H](c3ccccc3)c3cn(CCOCCn4cc([C@@H](NC(=O)[C@@H]5CC[C@@H]6CCCC[C@H](NC(=O)[C@H](C)NC)C(=O)N65)c5ccccc5)nn4)nn3)N2C1=O` [SH-159], the IC50 is less than 10 nM in test [1], less than 1000 nM in test [2] and less than 1000 nM in test [3].
As to `CN[C@@H](C)C(=O)N[C@H]1CCCC[C@H]2CC[C@@H](C(=O)N[C@@H](c3ccccc3)c3cn(CCCCn4cc([C@@H](NC(=O)[C@@H]5CC[C@@H]6CCCC[C@H](NC(=O)[C@H](C)NC)C(=O)N65)c5ccccc5)nn4)nn3)N2C1=O` [SH-166], the values for the concentration for half-maximal inhibition (IC50) in test [1], in test [2] and in test [3] were less than 10 nM, less than 1000 nM and less than 1000 nM, respectively.
As to `CN[C@@H](C)C(=O)N[C@H]1CCCC[C@H]2CC[C@@H](C(=O)N[C@@H](c3ccccc3)c3cn(CCCCCCCCn4cc([C@@H](NC(=O)[C@@H]5CC[C@@H]6CCCC[C@H](NC(=O)[C@H](C)NC)C(=O)N65)c5ccccc5)nn4)nn3)N2C1=O` [SH-167], the IC50 in test [2] and in test [3] was less than 10 nM throughout.
For `C[C@H](NCCO)C(=O)N[C@H]1CCCC[C@H]2CC[C@@H](C(=O)N[C@@H](c3ccccc3)c3cn(CCCCc4ccc(CCCCn5cc([C@@H](NC(=O)[C@@H]6CC[C@@H]7CCCC[C@H](NC(=O)[C@H](C)NCCO)C(=O)N76)c6ccccc6)nn5)cc4)nn3)N2C1=O` [SH-180], the IC50 in test [1] is less than 100 nM; in test [2], less than 1000 nM; in test [3], less than 1000 nM.
`CN[C@@H](C)C(=O)N[C@H]1CCCC[C@H]2CC[C@@H](C(=O)N[C@@H](c3ccc(F)cc3)c3cn(CCCCc4ccc(CCCCn5cc([C@@H](NC(=O)[C@@H]6CC[C@@H]7CCCC[C@H](NC(=O)[C@H](C)NC)C(=O)N76)c6ccc(F)cc6)nn5)cc4)nn3)N2C1=O` [SH-182]: the IC50 in test [1] is less than 100 nM; in test [2], less than 10 nM; in test [3], less than 10 nM.
With `C[C@H](NCCO)C(=O)N[C@H]1CCCC[C@H]2CC[C@@H](C(=O)N[C@@H](c3ccc(F)cc3)c3cn(CCCCc4ccc(CCCCn5cc([C@@H](NC(=O)[C@@H]6CC[C@@H]7CCCC[C@H](NC(=O)[C@H](C)NCCO)C(=O)N76)c6ccc(F)cc6)nn5)cc4)nn3)N2C1=O` [SH-184], the 50% inhibitory concentration (IC50) in test [1] was less than 100 nM; in test [2] it was less than 100 nM; in test [3], less than 10 nM.
For the compound `CN[C@@H](C)C(=O)N[C@H]1CCCC[C@H]2CC[C@@H](C(=O)N[C@@H](c3ccccc3)c3ccc(CCCNC(=O)NCCCc4ccc([C@@H](NC(=O)[C@@H]5CC[C@@H]6CCCC[C@H](NC(=O)[C@@H](C)NC)C(=O)N65)c5ccccc5)cc4)cc3)N2C1=O` [SH-188], the IC50 in test [1], in test [2] and in test [3] was less than 100 nM in each case.
As to `CN[C@@H](C)C(=O)N[C@H]1CCCC[C@H]2CC[C@@H](C(=O)N[C@@H](c3ccccc3)c3ccc(CCCNC(=S)NCCCc4ccc([C@@H](NC(=O)[C@@H]5CC[C@@H]6CCCC[C@H](NC(=O)[C@@H](C)NC)C(=O)N65)c5ccccc5)cc4)cc3)N2C1=O` [SH-189], the IC50 in test [1], in test [2] and in test [3] was less than 100 nM each time.
As to `CN[C@@H](C)C(=O)N[C@H]1CCCC[C@H]2CC[C@@H](C(=O)N[C@@H](c3ccccc3)c3ccc(CCCCNC(=O)NCCCCc4ccc([C@@H](NC(=O)[C@@H]5CC[C@@H]6CCCC[C@H](NC(=O)[C@H](C)NC)C(=O)N65)c5ccccc5)cc4)cc3)N2C1=O` [SH-190], the half-maximal inhibitory concentration (IC50) is less than 100 nM in test [1], less than 10 nM in test [2] and less than 10 nM in test [3].
With `CN[C@@H](C)C(=O)N[C@H]1CCCC[C@H]2CC[C@@H](C(=O)N[C@@H](c3ccccc3)c3cn(CCCCCOCCCCn4cc([C@@H](NC(=O)[C@@H]5CC[C@@H]6CCCC[C@H](NC(=O)[C@H](C)NC)C(=O)N65)c5ccccc5)nn4)nn3)N2C1=O` [SH-198], the IC50 is less than 100 nM in test [1], less than 10 nM in test [2] and less than 10 nM in test [3].
In the case of `CN[C@@H](C)C(=O)N[C@H]1CCCC[C@H]2CCC(C(=O)N[C@H](COCCCCCCCCCCCCOC[C@@H](NC(=O)[C@@H]3CC[C@@H]4CCCC[C@H](NC(=O)[C@H](C)NC)C(=O)N43)c3ccccc3)c3ccccc3)N2C1=O` (stereo partly drawn) [SH-202], the IC50 in test [1] is less than 100 nM; in test [2], less than 10 nM; in test [3] it was less than 10 nM.
For `CN[C@@H](C)C(=O)N[C@H]1CCCC[C@H]2CC[C@@H](C(=O)N[C@H](c3ccccc3)c3cn(CCCCc4ccc(CCCCn5cc([C@H](NC(=O)[C@@H]6CC[C@@H]7CCCC[C@H](NC(=O)[C@H](C)NC)C(=O)N76)c6ccccc6)nn5)cc4)nn3)N2C1=O` [SH-206], the IC50 in test [2] and in test [3] was less than 1000 nM in each case.
As for `CN[C@@H](C)C(=O)N[C@H]1CN(C(=O)Cc2ccc(F)cc2)CC[C@H]2CC[C@@H](C(=O)NCc3ccc(F)cc3)N2C1=O` [SM-402], the IC50 in test [4] was less than 0.1 µM.
Still for that read-out and setting: in the case of `CN[C@@H](C)C(=O)N[C@H]1CN(C(=O)CCc2ccc(F)cc2)CC[C@H]2CC[C@@H](C(=O)NC(c3ccc(F)cc3)c3ccc(F)cc3)N2C1=O` [SM-404] it was less than 0.1 µM.
On the same count and under the same terms, the figure for `CN[C@@H](C)C(=O)N[C@H]1CN(C(=O)CC2CCCC2)CC[C@H]2CC[C@@H](C(=O)NC(c3ccccc3)c3ccccc3)N2C1=O` [SM-405] is less than 0.1 µM.
For the compound `CN[C@@H](C)C(=O)N[C@H]1CN(C(=O)CC(C)C)CC[C@H]2CC[C@@H](C(=O)NC(c3ccccc3)c3ccccc3)N2C1=O` [SM-406], the IC50 in test [4] is less than 0.1 µM.
For `CN[C@@H](C)C(=O)N[C@H]1CN(Cc2ccc(CN3CC[C@H]4CC[C@@H](C(=O)NC(c5ccccc5)c5ccccc5)N4C(=O)[C@@H](NC(=O)[C@H](C)NC)C3)cc2)CC[C@H]2CC[C@@H](C(=O)NC(c3ccccc3)c3ccccc3)N2C1=O` [YP-317], the IC50 in test [1] and in test [3] was less than 100 nM throughout.
For `CN[C@@H](C)C(=O)N[C@H]1CN(C(=O)CCCCCCCCC(=O)N2CC[C@H]3CCC(C(=O)NC(c4ccccc4)c4ccccc4)N3C(=O)[C@@H](NC(=O)[C@H](C)NC)C2)CC[C@H]2CCC(C(=O)NC(c3ccccc3)c3ccccc3)N2C1=O` (stereo partly drawn) [YP-381], the IC50 in test [2] and in test [3] was less than 10 nM in each case.
Take `CN[C@@H](C)C(=O)N[C@H]1CN(C(=O)CCCCCCCCCCC(=O)N2CC[C@H]3CC[C@@H](C(=O)NC(c4ccccc4)c4ccccc4)N3C(=O)[C@@H](NC(=O)[C@H](C)NC)C2)CC[C@H]2CC[C@@H](C(=O)NC(c3ccccc3)c3ccccc3)N2C1=O` [YP-383]: the IC50 in test [2] and in test [3] was less than 10 nM throughout.
For `CN[C@@H](C)C(=O)N[C@H]1CN(C(=O)CCCCCCC(=O)N2CC[C@H]3CCC(C(=O)NC(c4ccccc4)c4ccccc4)N3C(=O)[C@@H](NC(=O)[C@H](C)NC)C2)CC[C@H]2CCC(C(=O)NC(c3ccccc3)c3ccccc3)N2C1=O` (stereo partly drawn) [YP-385], the 50% inhibitory concentration (IC50) in test [2] and in test [3] was less than 10 nM throughout.
Consider `CC(=O)O[C@@]12CO[C@@H]1C[C@H](O)[C@@]1(C)C(=O)[C@H](O)C3=C(C)[C@@H](OC(=O)[C@H](O)[C@@H](NC(=O)OC(C)(C)C)c4ccccc4)C[C@@](O)([C@@H](OC(=O)c4ccccc4)[C@H]21)C3(C)C` [taxotere, reference compound], for which, in test [5], the “inhibition of tumor growth compared to control” value is listed as “effective in inhibition of tumor growth” and the tumor regression result was “failed to achieve tumor regression”.
